# According to patent publication US8057810B2, “Peptide substance revealing an immunogeroprotective effect, pharmaceutical composition on its base and the method of its application” (priority 2006, dated 2011):
# Marks after values point to notes of the source that are not given here. Residues, ends and D or L forms follow the SMILES beside them.
# What was measured:
# [1] = tested on: old rats' spleen explants; experiment: Development of spleen explants taken from old rats (area index); assay type: cell-based; conditions: 10 ng/ml
# Procedure: The experiments were staged on 35 fragments of the thymus and 45 fragments of the spleen taken from rats aged 24 months. Nutritional medium for cultivation consisted of 35% Eagle's solution, 25% calf fetal serum, 35% Hanx solution, 5% chicken embryonic extract, with the addition of glucose (0.6%), insulin (0.5 U/ml), penicillin (100 U/ml), glutamin (2 mM). […]
# Peptide H-Glu-Asp-Pro-OH was added into the experimental medium in concentrations of 0.5, 10 and 100 ng/ml.
# Area index (AI)—the ratio of total explant area including the growth zone to the initial area of thymus or spleen fragment was used as a criterion for measuring the biological activity. AI values were expressed in percent, control AI value being taken as 100%.
# [2] = tested on: elderly and old patients with age-related immune status decline; experiment: Clinical application in elderly and old patients exposed to small doses of ionizing irradiation; assay type: in vivo, human
# Procedure: The efficacy of pharmaceutical composition, containing an effective amount of peptide H-Glu-Asp-Pro-OH as an active base, was studied in elderly and old patients, exposed to long-term ionizing irradiation in small doses.
# The main group consisted of 38 elderly patients (18 men, 20 women), who were divided into 3 groups according to the intensity of immune status changes. […] Elderly and old patients with age-related decrease of the immune functions were injected with the pharmaceutical composition containing peptide H-Glu-Asp-Pro-OH in the dose of 10.0 μg in 1 ml of sterile 0.9% NaCl solution intramuscularly, daily, once a day for 10 days. 32 control group patients (14 men, 18 women) received only conventional treatment. The patients of both groups were from 62 to 83 years old. The efficacy of the pharmaceutical composition containing peptide H-Glu-Asp-Pro-OH was estimated judging by the dynamics of the patients' complaints and a set of objective indices, such as common blood and urine tests, immunologic study of peripheral blood (the number of T- and B-lymphocytes was estimated using the immunofluorescence method with monoclonal antibodies to CD3, CD4, CD8, CD20 differentiation lymphocytes antigens; content of immunoglobulins of different classes—using Mancini's method of radial immunodiffusion in the gel, T-lymphocytes functional activity—in lymphocyte migration inhibition reaction (LMIR) with Con A.
# [3] = tested on: lymphocytes taken from very old patients; experiment: Chromatin in blood lymphocytes of old patients in vitro; assay type: cell-based, human; conditions: 0.01 μg/ml; lymphocytes of patients aged 75-88
# Procedure: Peptide H-Glu-Asp-Pro-OH effect on the system of chromatin domains was studied in old people lymphocytes cultures, in particular on chromatin reactivation such as in deheterochromatinization of heterocliromatin satellite filaments (activity of synthetic processes in ribosomal genes, total heterochromatin, structural heterochromatin (changeability of C-blocks of the 1, 9 and 16 chromosomes) and optional heterochromatin.
# The studies were conducted on the chromosomes of 150 PHA-stimulated and 40 PHA-non-stimulated lymphocyte cultures, obtained from 95 healthy patients aged 75-88 (control—25 donors aged 20-40). There were studied 2 cell cultures from each patient —one intact and one with peptide H-Glu-Asp-Pro-OH added into the cultural medium up to the ultimate concentration of 0.01 μg/ml. To study each parameter there were analyzed from 30 up to 50 metaphases of both intact lymphocyte cultures and those with added peptide (10 cultures of each).
# To estimate ribosomal genes activity in intact cultures and under the effect of the peptide there were used methods of Ag-banding and of the registration of nucleolar organizers regions (NOR) of acrocentric chromosomes. Changeability of the activity level was estimated comparing two binomial totals.
# Polymorphism of structural C-heterochromatin of the 1, 9 and 16 chromosomes was estimated. For comparative analysis of C-stained chromosomes of intact cultures and those treated with the peptide there was used a standard system of classification, according to which the size of the 1, 9, 16 chromosomes C-segments were compared to the chromosome 16 short leg and the results were divided into 5 categories—a, b, c, d, e. The changeability of facultative heterochromatin was estimated according to the frequency of sister chromatid exchange (SCE) in intact and peptide-treated lymphocytes.
# [4] = patients 62-83 years, after treatment including the peptide, i.m. daily for 10 days
smiles,measurement,setting,value
"N[C@@H](CCC(=O)O)C(=O)N[C@@H](CC(=O)O)C(=O)N1CCC[C@H]1C(=O)O [Peptide H-Glu-Asp-Pro-OH, glutamyl-aspartyl-proline] (H-Glu-Asp-Pro-OH)",Stimulating effect on spleen explants at longer term,[1]; 7th day,"still visible, although it was less pronounced"
same,"Area index (AI) in spleen explants, increase",[1]; rats aged 24 months,28%
same,Patients in whom disordered immune system indices were normalized,"[2]; composition in different doses with symptomatic means, 56% in the control group",82%
same,Side effects in patients,"[2]; elderly and old patients, composition in different doses","does not exert any side effects, complications or drug addiction"
same,General state and asthenic syndrome after the treatment course,[2]; elderly people in the three main groups,significant improvement of the general state and reduction of the asthenic syndrome
same,"CD3+, %",[2]; [4],55.7 ± 2.6 %
same,"CD3+, ×10^9/l",[2]; [4],1.86 ± 0.05 ×10^9/l
same,"CD4+, %",[2]; [4],34.6 ± 2.0 %
same,"CD4+, ×10^9/l",[2]; [4],0.67 ± 0.09 ×10^9/l
same,CD4+/CD8+,[2]; [4],1.4*#
same,"CD8+, %",[2]; [4],24.9 ± 1.8%
same,"CD8+, ×10^9/l",[2]; [4],0.46 ± 0.07 ×10^9/l
same,"CD20+, %",[2]; [4],12.0 ± 0.7%
same,"CD20+, ×10^9/l",[2]; [4],0.20 ± 0.01 ×10^9/l
same,IgA,[2]; [4],2.1 ± 0.3 g/L
same,IgG,[2]; [4],14.9 ± 1.7 g/L
same,IgM,[2]; [4],1.64 ± 0.06 g/L
same,LMIR (lymphocyte migration inhibition reaction with Con A),[2]; [4],70.4 ± 4.9 %
same,Leukocytes,[2]; [4],5.6 ± 0.1 ×10^9/l
same,"Lymphocytes, %",[2]; [4],35.1 ± 2.1%
same,"Lymphocytes, ×10^9/l",[2]; [4],1.87 ± 0.05 ×10^9/l
same,Associated acrocentric chromosomes (per cell),[3],2.32 ± 0.12 per cell
same,Deheterochromatinization of optional heterochromatin - SCE (per cell),[3],8.4 ± 0.5 per cell
same,"Structural heterochromatin (C-blocks), chromosome 1",[3],Deheterochro-
same,"Structural heterochromatin (C-blocks), chromosome 9",[3],Deheterochro-
same,"Structural heterochromatin (C-blocks), chromosome 16",[3],Stable
same,Total heterochromatin,[3],Deheterochro-
